Several values for one entry are separate records, joined by “and”; a condition that tells them apart may be missing. Equal entries are not always repeated.
What was measured:
[1] = test system: pERK levels in HUVEC cells; test: pERK levels in HUVEC cells, western blot; format: cell-based, Human; conditions: HUVECs incubated 2 hours, pERK relative to total ERK; Na3VO4 at 200 μM
Protocol: Cell Culture and Western Blots.
Human Umbilical Vein Endothelial Cells (HUVECs) were maintained in EBM2 media (Lonza, CC-3156) supplemented with a combined serum and growth factor kit (Lonza, CC-4176). Cells were incubated with the indicated concentrations of drug for 2 h and lysed with RIPA buffer (Sigma, R0278) on ice. Cell lysates were cleared by centrifugation at 16,300×g for 30 min. The resulting supernatants were isolated and protein concentration determined by Lowry assay (DC protein assay, BioRad). 2× laemmli sample buffer was added to equal amounts of protein and separated by SDS-PAGE. The protein gels were transferred to polyvinylidene difluoride (PVDF) and immunoblotted using antibodies to phosphorylated ERK (Cell Signaling, #9106) and total ERK (Cell Signaling, #9102). Bound antibodies were visualized using horseradish peroxidase-linked anti-rabbit IgG, anti-mouse IgG (Cell Signaling Tech., #7074 and #7076) and ECL reagents (Thermo Scientific, 34080) according to the manufacturer's protocol.

[2] = biological target: mutant DUSP5 (Homo sapiens, UniProt Q16690, S147P); test: Restoration of mutant DUSP5 function
mutant DUSP5, sequence (Q16690 whole entry S147P): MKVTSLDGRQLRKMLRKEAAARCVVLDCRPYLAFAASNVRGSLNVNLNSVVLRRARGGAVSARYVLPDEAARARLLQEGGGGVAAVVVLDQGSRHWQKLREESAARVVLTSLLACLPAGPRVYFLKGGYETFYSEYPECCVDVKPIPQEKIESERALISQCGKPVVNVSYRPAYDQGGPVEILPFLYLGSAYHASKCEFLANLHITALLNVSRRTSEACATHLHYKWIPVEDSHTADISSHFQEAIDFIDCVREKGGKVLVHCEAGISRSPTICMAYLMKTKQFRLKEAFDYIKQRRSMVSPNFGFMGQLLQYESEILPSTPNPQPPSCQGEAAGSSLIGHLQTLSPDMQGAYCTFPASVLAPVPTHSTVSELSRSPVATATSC

[3] = biological target: PTPN1 (PTP1B) (Homo sapiens, UniProt P18031); test: Phosphatase profiling, pNPP substrate; format: biochemical; conditions: 30 μM, triplicate; negative = inhibition
Protocol: (§1) Assays were performed to profile compound CSDDD2320 against 21 phosphatase targets at 1 concentration (30 μM) in triplicate measurements. The aim was to identify whether the compound can affect the activity of the various phosphatase targets selected.
(§2) Protein Phosphatase Assay: The DUSP22, PTPN2 (TC-PTP), PTPN7 (LC-PTP), PTPRA (LRP), PTPRC (CD45), PTPRE, PTPRS, PTPN1(PTP1B) and PTPN13(FAP-1) phosphatase activity was determined by performing assays at 37° C. for 15 minutes in a final volume of 100 μl according to the following assay reaction recipe:
(§3) Component 1. 5 μl of diluted active protein phosphatase
(§4) Component 2. 50 μl of 1.5 mM pNPP substrate assay solution
(§5) Component 3. 25 μl of phosphatase assay buffer
(§6) Component 4. 20 μl of compound (150 μM) or 10% DMSO
(§7) The assay was started by incubating the reaction mixture at 37° C. for 15 minutes. After the 15 minute incubation period, the assay was terminated by the addition of 25 μl of 2N NaOH stopping solution. The absorbance of the reaction solution was measured in a spectrophotometer at 405 nm. Blank control was set up that included all the assay components except the addition of the pNPP substrate (replaced with equal volume of phosphatase assay buffer). The corrected activity for various phosphatase targets was determined by removing the blank control value.

[4] = biological target: PTPN13 (FAP-1) (Homo sapiens, UniProt Q12923); test: Phosphatase profiling, pNPP substrate; format: biochemical; conditions: 30 μM, triplicate; positive = activation
Protocol: as §1, §2, §3, §4, §5, §6, §7

[5] = biological target: PTPRE (Homo sapiens, UniProt P23469); test: Phosphatase profiling, pNPP substrate; format: biochemical; conditions: 30 μM, triplicate; negative = inhibition; listed as CSDDD2320
PTPRE, sequence (P23469 20-700, species assumed): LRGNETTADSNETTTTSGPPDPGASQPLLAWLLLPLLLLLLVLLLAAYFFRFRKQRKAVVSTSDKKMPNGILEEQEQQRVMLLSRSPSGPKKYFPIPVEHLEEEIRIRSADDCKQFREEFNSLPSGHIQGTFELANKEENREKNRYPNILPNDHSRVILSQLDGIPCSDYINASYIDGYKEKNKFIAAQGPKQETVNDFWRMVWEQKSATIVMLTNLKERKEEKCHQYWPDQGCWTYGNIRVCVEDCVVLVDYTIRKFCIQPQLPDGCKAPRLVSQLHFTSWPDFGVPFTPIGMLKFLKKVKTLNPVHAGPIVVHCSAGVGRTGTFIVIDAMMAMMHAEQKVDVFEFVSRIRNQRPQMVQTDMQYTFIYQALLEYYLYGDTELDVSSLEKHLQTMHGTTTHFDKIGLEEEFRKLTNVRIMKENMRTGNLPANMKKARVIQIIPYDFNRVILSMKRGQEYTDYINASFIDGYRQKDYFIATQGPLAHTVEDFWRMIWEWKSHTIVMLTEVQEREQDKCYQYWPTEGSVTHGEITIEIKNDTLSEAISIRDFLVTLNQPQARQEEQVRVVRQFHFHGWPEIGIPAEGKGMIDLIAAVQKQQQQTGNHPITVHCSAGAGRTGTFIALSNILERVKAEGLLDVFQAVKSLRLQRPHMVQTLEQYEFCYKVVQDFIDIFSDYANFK
Protocol: as §1, §2, §3, §4, §5, §6, §7

[6] = biological target: PTPRA (LRP) (Homo sapiens, UniProt P18433); test: Phosphatase profiling, pNPP substrate; format: biochemical; conditions: 30 μM, triplicate; positive = activation
PTPRA (LRP), sequence (P18433 20-802, species assumed): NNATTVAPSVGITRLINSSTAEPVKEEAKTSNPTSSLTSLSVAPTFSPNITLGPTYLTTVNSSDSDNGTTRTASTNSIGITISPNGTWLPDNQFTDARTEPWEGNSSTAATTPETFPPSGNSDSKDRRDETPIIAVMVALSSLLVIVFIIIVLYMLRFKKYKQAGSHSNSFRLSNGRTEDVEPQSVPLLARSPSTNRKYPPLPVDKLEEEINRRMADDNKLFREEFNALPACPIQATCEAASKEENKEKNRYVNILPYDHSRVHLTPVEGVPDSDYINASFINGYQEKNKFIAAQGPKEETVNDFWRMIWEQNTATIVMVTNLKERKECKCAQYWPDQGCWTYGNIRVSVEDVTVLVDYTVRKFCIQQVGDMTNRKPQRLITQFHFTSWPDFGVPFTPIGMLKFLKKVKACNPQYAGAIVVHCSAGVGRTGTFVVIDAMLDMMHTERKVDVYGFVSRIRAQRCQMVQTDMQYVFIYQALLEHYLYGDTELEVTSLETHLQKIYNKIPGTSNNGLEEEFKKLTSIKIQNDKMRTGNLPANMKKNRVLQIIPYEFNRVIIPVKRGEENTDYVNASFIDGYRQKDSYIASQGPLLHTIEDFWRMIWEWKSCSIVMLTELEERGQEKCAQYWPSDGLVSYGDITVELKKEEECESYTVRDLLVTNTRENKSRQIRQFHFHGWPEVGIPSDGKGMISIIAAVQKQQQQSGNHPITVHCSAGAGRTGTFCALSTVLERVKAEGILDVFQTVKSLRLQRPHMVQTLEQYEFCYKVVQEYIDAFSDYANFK
Protocol: as §1, §2, §3, §4, §5, §6, §7

[7] = biological target: PTPN2 (TC-PTP) (Homo sapiens, UniProt P17706); test: Phosphatase profiling, pNPP substrate; format: biochemical; conditions: 30 μM, triplicate; positive = activation
PTPN2 (TC-PTP), sequence (P17706 whole entry, species assumed): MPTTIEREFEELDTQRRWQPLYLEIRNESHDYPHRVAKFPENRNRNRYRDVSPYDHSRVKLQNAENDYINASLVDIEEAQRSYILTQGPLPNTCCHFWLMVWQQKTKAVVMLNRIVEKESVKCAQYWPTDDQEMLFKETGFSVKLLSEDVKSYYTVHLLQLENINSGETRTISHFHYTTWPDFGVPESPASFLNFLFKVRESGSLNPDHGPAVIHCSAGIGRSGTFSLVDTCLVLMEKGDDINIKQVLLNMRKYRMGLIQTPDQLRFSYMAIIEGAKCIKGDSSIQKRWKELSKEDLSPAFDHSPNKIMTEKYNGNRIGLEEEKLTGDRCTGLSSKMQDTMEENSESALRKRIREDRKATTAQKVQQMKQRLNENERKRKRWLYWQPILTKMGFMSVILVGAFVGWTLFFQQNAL
Protocol: as §1, §2, §3, §4, §5, §6, §7

[8] = biological target: PTPRC (CD45) (Homo sapiens, UniProt P08575); test: Phosphatase profiling, pNPP substrate; format: biochemical; conditions: 30 μM, triplicate; negative = inhibition; listed as CSDDD2320
PTPRC (CD45), sequence (P08575 26-1306, species assumed): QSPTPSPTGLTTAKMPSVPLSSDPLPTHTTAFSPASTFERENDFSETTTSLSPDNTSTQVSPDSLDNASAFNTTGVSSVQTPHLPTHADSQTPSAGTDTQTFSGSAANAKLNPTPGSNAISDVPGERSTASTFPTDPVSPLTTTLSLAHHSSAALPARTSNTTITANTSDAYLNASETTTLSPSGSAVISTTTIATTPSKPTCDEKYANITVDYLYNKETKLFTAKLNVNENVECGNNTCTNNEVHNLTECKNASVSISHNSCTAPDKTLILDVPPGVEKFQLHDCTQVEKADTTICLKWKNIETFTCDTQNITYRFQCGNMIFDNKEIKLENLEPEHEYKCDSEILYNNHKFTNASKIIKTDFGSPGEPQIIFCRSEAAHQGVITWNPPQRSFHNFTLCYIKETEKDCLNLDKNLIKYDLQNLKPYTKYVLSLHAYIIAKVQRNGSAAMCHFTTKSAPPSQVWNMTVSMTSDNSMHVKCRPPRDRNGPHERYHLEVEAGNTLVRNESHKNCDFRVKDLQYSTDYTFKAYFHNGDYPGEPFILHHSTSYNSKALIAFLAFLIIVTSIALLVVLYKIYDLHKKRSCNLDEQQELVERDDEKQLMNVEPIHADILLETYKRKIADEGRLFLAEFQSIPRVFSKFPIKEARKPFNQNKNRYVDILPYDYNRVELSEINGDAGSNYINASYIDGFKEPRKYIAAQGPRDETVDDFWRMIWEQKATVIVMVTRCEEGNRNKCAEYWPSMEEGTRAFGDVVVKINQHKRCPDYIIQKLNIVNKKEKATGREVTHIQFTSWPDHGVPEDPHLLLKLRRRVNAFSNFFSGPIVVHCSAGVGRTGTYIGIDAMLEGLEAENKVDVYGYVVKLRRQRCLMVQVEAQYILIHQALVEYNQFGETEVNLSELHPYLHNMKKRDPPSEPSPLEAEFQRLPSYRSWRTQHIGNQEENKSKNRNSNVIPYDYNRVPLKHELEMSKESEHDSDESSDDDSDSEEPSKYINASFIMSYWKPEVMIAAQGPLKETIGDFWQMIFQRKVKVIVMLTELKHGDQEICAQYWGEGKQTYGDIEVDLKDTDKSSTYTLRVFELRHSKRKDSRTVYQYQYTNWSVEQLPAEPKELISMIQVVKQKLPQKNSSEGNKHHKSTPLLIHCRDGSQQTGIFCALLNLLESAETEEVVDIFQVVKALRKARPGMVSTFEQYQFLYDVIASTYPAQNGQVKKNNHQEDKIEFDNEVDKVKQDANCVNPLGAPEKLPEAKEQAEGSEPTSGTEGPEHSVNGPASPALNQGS
Protocol: as §1, §2, §3, §4, §5, §6, §7

[9] = biological target: DUSP22 (MKPX) (Homo sapiens, UniProt Q9NRW4); test: Phosphatase profiling, pNPP substrate; format: biochemical; conditions: 30 μM, triplicate; negative = inhibition; listed as CSDDD2320
DUSP22 (MKPX), sequence (Q9NRW4 whole entry, species assumed): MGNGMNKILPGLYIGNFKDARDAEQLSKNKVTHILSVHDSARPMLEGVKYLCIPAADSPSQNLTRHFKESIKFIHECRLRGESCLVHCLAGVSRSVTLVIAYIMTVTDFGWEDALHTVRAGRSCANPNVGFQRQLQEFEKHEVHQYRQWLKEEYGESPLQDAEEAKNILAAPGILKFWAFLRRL
Protocol: as §1, §2, §3, §4, §5, §6, §7

[10] = biological target: PTPN7 (LC-PTP) (Homo sapiens, UniProt P35236); test: Phosphatase profiling, pNPP substrate; format: biochemical; conditions: 30 μM, triplicate; positive = activation
PTPN7 (LC-PTP), sequence (P35236 whole entry, species assumed): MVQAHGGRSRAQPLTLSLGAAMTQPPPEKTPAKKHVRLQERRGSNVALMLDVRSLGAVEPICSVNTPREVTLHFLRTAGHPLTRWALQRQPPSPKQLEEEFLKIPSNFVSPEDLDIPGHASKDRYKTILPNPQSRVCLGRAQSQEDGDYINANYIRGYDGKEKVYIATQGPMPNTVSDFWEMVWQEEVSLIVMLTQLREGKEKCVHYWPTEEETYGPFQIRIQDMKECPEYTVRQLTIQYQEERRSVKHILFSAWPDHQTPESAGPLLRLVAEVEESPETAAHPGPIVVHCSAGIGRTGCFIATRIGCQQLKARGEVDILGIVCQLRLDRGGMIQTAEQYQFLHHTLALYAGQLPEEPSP
Protocol: as §1, §2, §3, §4, §5, §6, §7

[11] = biological target: PTPRS (PTP-sigma) (Homo sapiens, UniProt Q13332); test: Phosphatase profiling, pNPP substrate; format: biochemical; conditions: 30 μM, triplicate; negative = inhibition
Protocol: as §1, §2, §3, §4, §5, §6, §7

[12] = Aggregation of compounds (nephelometry; detergent treatment); format: physicochemical
Protocol: Nephelometry is a technique for measuring the relative aggregation of particles in solution, based on the light-scattering properties of molecular aggregates (30). To explore the ability of the chemicals studied herein to form aggregates, which can lead to artifactual inhibition effects, nephelometry was performed. Compounds were tested for aggregation in 96-well plates using a buffer containing 100 mM Tris base, 100 mM sodium chloride, and 5 mM magnesium chloride at pH 7.5. Each compound analyzed in these experiments contained concentrations of compound ranging from 10-100 μM, recorded in quadruplet. Each plate was analyzed at two separate gain values of 52 and 72. Data were collected using a BMG NEPHELOstar Plus, equipped with a 635 nm laser.
To investigate whether Suramin aggregates in solution, a property often investigated with small molecules, we performed detergent treatment assays. […] NTS and Suramin were compared using DUSP5 PD IC50 assays performed with and without detergent. […] We concluded that Suramin forms aggregates in vitro which can lead to non-specific protein inhibition effects. Beyond any adverse implications for repurposing Suramin in this project, the aggregation phenomenon raises more global concerns regarding the current clinical use of Suramin, and may in part explain some of the known toxicity associated with Suramin (32).

[13] = biological target: T1, PTPN1 (Homo sapiens, UniProt P18031); test: Phosphatase inhibition profiles (Table 4), initial rates; format: biochemical
T1 sequence (P18031 1-435): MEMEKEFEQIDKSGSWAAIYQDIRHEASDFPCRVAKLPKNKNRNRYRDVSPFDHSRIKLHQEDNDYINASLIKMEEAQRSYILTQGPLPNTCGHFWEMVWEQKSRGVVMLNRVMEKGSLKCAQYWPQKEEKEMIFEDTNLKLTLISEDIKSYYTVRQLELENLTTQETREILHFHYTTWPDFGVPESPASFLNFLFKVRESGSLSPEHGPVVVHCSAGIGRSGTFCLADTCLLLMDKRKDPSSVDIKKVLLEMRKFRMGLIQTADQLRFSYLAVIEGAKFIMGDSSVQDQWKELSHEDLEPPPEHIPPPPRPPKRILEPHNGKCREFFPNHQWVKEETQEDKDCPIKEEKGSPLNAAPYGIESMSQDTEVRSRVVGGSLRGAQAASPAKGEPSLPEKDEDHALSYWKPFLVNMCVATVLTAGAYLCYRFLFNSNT

[14] = biological target: T2, GST-tagged full length DUSP5 (Homo sapiens, UniProt Q16690); test: pNPP assay with GST-tagged full length DUSP5; format: biochemical; conditions: full length DUSP5, pNPP as substrate; listed as CSD3-2320
T2 construct: GST-tagged full length DUSP5, when pNPP was used as a substrate
T2 sequence (Q16690 whole entry): as the sequence (Q16690 whole entry S147P) above, with P147S counted along it

SMILES	effect on pERK levels [1]	effect on mutant DUSP5 function [2]	% Change (activity change compared to control) [3] [%]	% Change (activity change compared to control) [4] [%]	% Change (activity change compared to control) [5] [%]	% Change (activity change compared to control) [6] [%]	% Change (activity change compared to control) [7] [%]	% Change (activity change compared to control) [8] [%]	% Change (activity change compared to control) [9] [%]	% Change (activity change compared to control) [10] [%]	% Change (activity change compared to control) [11] [%]	aggregation [12]	IC50 PTPN1 (mean ± SE) [13]	IC50 [14]
O=S(=O)([O-])c1ccc2[nH]c3c(S(=O)(=O)[O-])cc(S(=O)(=O)[O-])cc3c2c1.[Na+].[Na+].[Na+] [RR505, Carbazole-1,3,6-trisulfonic acid, Trisodium Salt]	do not show biologically useful levels of potency	appears to restore mutant DUSP5's function	–	–	–	–	–	–	–	–	–	–	–	–
O=S(=O)(O)c1cc(O)c2c(S(=O)(=O)O)cccc2c1 [RR527]	–	–	−4	6	−11	5	2	−12	−13	7	−6	no propensity to aggregate	Does not inhibit	563 µM and 561 µM

— patent US20180000778A1, “SMALL MOLECULE ANTAGONISTS OF DUSP5 AND METHODS OF USE” (THE MEDICAL COLLEGE OF WISCONSIN, INC., priority 2015, published 2018)
